# Test results as given in PMC4301871, “WW Domains of the Yes-Kinase-Associated-Protein (YAP) Transcriptional Regulator Behave as Independent Units with Different Binding Preferences for PPxY Motif-Containing Ligands” (PLoS ONE, 2015).
# Read-outs that look alike come from different tables or passages of the source.
# Tests used:
# [1] = target: T1, YAP-WW1 (first WW domain of human YAP, residues 165–209) (Homo sapiens, UniProt P46937); assay: Isothermal titration calorimetry of peptide ligands with isolated YAP-WW1; type: binding; conditions: ITC, 25°C; for n (number of binding sites) / Kd: 40 mM sodium phosphate pH 7.0 (10 mM β-mercaptoethanol for LATS2), one set of identical sites model, at least two experiments; for n (number of binding sites): variability about 1%; for Kd: variability about 10%; for -T·ΔSap / ΔGap / ΔHap: pH 7.0, one set of sites model; for ΔHap: variability about 5%
# T1 construct: residues 165–209 for the first WW domain of human YAP (YAP-WW1); poly-histidine (N, cleaved yes); GST (N, cleaved yes); made in house; host or cells: E. coli BL21 (DE3)
# Experimental: (§1) ITC experiments were carried out using a high-precision VP-ITC titration calorimeter (Microcal Inc., Northampton, Massachusetts). The WW domains were extensively dialyzed against 40 mM sodium phosphate buffer, pH 7.0, with the exception of those experiments using the LATS2 ligand, (containing a cysteine residue), for which the dialysis was performed in the presence of 10mM β-mercaptoethanol to reduce intermolecular di-sulphide bonds formed during ligand storage. Protein and peptide solutions, ranging from 20 to 40 μM for the proteins and from 0.8 to 2 mM for the ligands, were properly degassed to avoid bubble formation and equilibrated to 25°C prior to the titration experiment. In all cases, a profile of injection volumes from 3 to 20 μl was used to better define the titration curve. The heat evolved after each peptide injection was obtained from the integral of the calorimetric signal. The heat associated with the binding process was obtained as the difference between the heat of reaction and the corresponding heat of dilution, as obtained from independent titrations of the peptides into the buffer.
# (§2) For the individual WW domains and those ligands with similar binding affinities for YAP-WW1 and YAP-WW2 domains (LATS1-a and LATS2), the resulting binding isotherms were analyzed by non-linear least-squares fittings to a model corresponding to a single set of identical sites, according to the equation:
# (§3) Q=V0ΔH/2Ka[1+Ka[Lt]+nKa[Mt]+(1+Ka[Lt]+nKa[Mt])^2−4nKa2[Mt][Lt]] (equation 2)
# (§4) , where Q is the net heat of binding, n is the number of binding sites, ΔH is the change in the enthalpy due to the binding process, Ka is the association constant, V0 is the active cell volume, and [Mt] and [Lt] are the total concentrations of macromolecule and the ligand, respectively.
# (§5) Both models were implemented in Origin 7.0 software (OriginLab Corporation, Northampton, MA). For the least-squares fit using the one set of sites model, the number of binding sites, the association constant, and the binding enthalpy were considered as floating parameters, while in the analysis with the two set of sites model, only the two association constants and the two binding enthalpies were left to float. All experiments were performed at least twice. Typically, the variability of the experimental values was estimated to be about 1% in the number of binding sites, 5% in the binding enthalpy and 10% in the binding affinity.
# [2] = target: T2, YAP-WW1-WW2 tandem construct (human YAP residues 165–271) (Homo sapiens, UniProt P46937); assay: Isothermal titration calorimetry of peptide ligands with the YAP-WW1-WW2 tandem; type: binding; conditions: ITC, 25°C; for n (number of binding sites): 40 mM sodium phosphate pH 7.0 (10 mM β-mercaptoethanol for LATS2), binding model for one set of sites
# T2 construct: residues 165–271 for tandem construct (YAP-WW1-WW2); poly-histidine (N, cleaved yes); GST (N, cleaved yes); made in house; host or cells: E. coli BL21 (DE3)
# [3] = target: T3, YAP-WW2 (second WW domain of human YAP, residues 228–271) (Homo sapiens, UniProt P46937); assay: Isothermal titration calorimetry of peptide ligands with isolated YAP-WW2; type: binding; conditions: ITC, 25°C; for n (number of binding sites) / Kd: 40 mM sodium phosphate pH 7.0 (10 mM β-mercaptoethanol for LATS2), one set of identical sites model, at least two experiments; for n (number of binding sites): variability about 1%; for Kd: variability about 10%, n.b. = no binding detected; for -T·ΔSap / ΔGap / ΔHap: pH 7.0, one set of sites model; for ΔHap: variability about 5%
# T3 construct: residues 228–271 for the second WW domain (YAP-WW2); poly-histidine (N, cleaved yes); GST (N, cleaved yes); made in house; host or cells: E. coli BL21 (DE3)
# Experimental: as §1, §2, §3, §4, §5
# YAP-WW1 domain = assay: Phage ELISA of YAP-WW2-selected clones, displacement of p53BP2 from YAP-WW1; type: binding, human; conditions: YAP-WW1 compared with YAP-WW2
# Experimental: The analysis of the binding preferences of the WW domains was performed by phage-display as previously described. Briefly, an N-term library in PIII was generated using a template derived from the pS2202d phagemid, containing the Erbin-PDZ domain kindly provided by Dr. Sachdev Sidhu (University of Toronto). The Erbin-PDZ sequence was removed by the introduction of four stop codons between the secretion signal and the linker required for the correct display of the library variants in the phage. A randomized sequence corresponding to a x5(L/P)PxYx5 peptide library containing the L/PPxY core motif for type 1 WW domains was subsequently introduced into the modified phagemid. The resulting library was then introduced into the SS320 strain by electroporation. The subsequent phage propagation led to 10^11 library diversity, which was isolated at 5 x 10^13 phages/ml in PBS-Tween (0.05%) buffer. The resulting library was then screened against immobilized GST-tagged YAP-WW2 domain (GST-YAP-WW2) in PBS, carrying out seven rounds of an iterative selection process. Single clones were chosen from round 3 to round 7 and tested for specific binding to the GST-YAP-WW2 by phage ELISA in a Tecan Infinite M200 instrument. […] The DNA from phages showing binding in the ELISA assay were used as PCR templates to amplify the peptide-encoding regions, which were then sequenced and analyzed.
# [4] = pH 7.0, binding model for one set of sites
# [5] = pH 7.0, model of two different sets of sites, n fixed to 1 each, first set of sites (first line)
# [6] = pH 7.0, model of two different sets of sites, n fixed to 1 each, second set of sites (second line)
# [7] = pH 7.0, two sets of sites model, n fixed to 1, first set of sites
# [8] = pH 7.0, two sets of sites model, n fixed to 1, second set of sites
# T3 sequence (P46937 228-271): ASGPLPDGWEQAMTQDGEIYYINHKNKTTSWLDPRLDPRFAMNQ
# T2 sequence (P46937 165-271): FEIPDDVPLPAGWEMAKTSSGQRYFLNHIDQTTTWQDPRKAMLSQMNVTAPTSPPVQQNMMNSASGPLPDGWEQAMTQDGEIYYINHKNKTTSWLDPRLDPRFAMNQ
# T1 sequence (P46937 165-209): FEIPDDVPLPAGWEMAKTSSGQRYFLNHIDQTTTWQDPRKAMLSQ
Compound,n (number of binding sites) [1],Kd [1] [µM],-T·ΔSap [1] [kcal/mol],ΔGap [1] [kcal/mol],ΔHap [1] [kcal/mol],n (number of binding sites) [2],"-T·ΔSap [2, 4] [kcal/mol]","Kd [2, 4] [µM]","ΔGap [2, 4] [kcal/mol]","ΔHap [2, 4] [kcal/mol]",n (number of binding sites) [3],Kd ([3]; read-out: Kd) [µM],-T·ΔSap [3] [kcal/mol],ΔGap [3] [kcal/mol],ΔHap [3] [kcal/mol],"Kd [2, 5] [µM]","Kd [2, 6] [µM]","-T·ΔSap [2, 7] [kcal/mol]","ΔGap [2, 7] [kcal/mol]","ΔHap [2, 7] [kcal/mol]",also measured
AGRPPPPPYPGPPL,–,–,–,–,–,–,–,–,–,–,–,–,–,–,–,–,–,–,–,–,Interaction with the two WW domains of YAP (ELISA binding experiments) (YAP-WW1 domain): seems to interact similarly with the two WW domains of YAP
Ac-RRCPPPPYPKHL-NH2 [LATS2],1.05,7.1,11.9,–,-18.8,2.02,9.56,9.2,-6.88,-16.4,1.08,8.2,6.86,-6.96,-13.8,–,–,–,–,–,–
Ac-YQGPPPPYPKHL-NH2 [LATS1-b],0.91,3.7,9.08,-7.41,-16.5,–,–,–,–,–,0.94,33.9,10.7,-6.12,-16.8,4.8,31.9,9.66,-7.27,-16.9,"-T·ΔSap [2, 8]: 6.24 kcal/mol; ΔGap [2, 8]: -6.14 kcal/mol; ΔHap [2, 8]: -12.4 kcal/mol"

# Further compounds by falling Kd [1], results first:
n (number of binding sites) [1],Kd [1] [µM],-T·ΔSap [1] [kcal/mol],ΔGap [1] [kcal/mol],ΔHap [1] [kcal/mol],n (number of binding sites) [2],"-T·ΔSap [2, 4] [kcal/mol]","Kd [2, 4] [µM]","ΔGap [2, 4] [kcal/mol]","ΔHap [2, 4] [kcal/mol]",n (number of binding sites) [3],Kd ([3]; read-out: Kd) [µM],-T·ΔSap [3] [kcal/mol],ΔGap [3] [kcal/mol],ΔHap [3] [kcal/mol],"Kd [2, 5] [µM]","Kd [2, 6] [µM]","-T·ΔSap [2, 7] [kcal/mol]","ΔGap [2, 7] [kcal/mol]","ΔHap [2, 7] [kcal/mol]",Compound,also measured
0.95,27.6,9.3,-6.24,-15.5,–,–,–,–,–,0.91,45.8,9.82,-5.93,-15.8,24.7,47.4,6.33,-6.31,-12.6,CC(=O)N[C@@H](CCCNC(=N)N)C(=O)N[C@@H](Cc1ccc(O)cc1)C(=O)N[C@@H](CO)C(=O)N1CCC[C@H]1C(=O)N1CCC[C@H]1C(=O)N1CCC[C@H]1C(=O)N1CCC[C@H]1C(=O)N[C@@H](Cc1ccc(O)cc1)C(=O)N[C@@H](CO)C(=O)N[C@@H](CO)C(=O)N[C@@H](Cc1c[nH]cn1)C(=O)N[C@@H](CO)C(N)=O [PTCH1-a],"-T·ΔSap [2, 8]: 12.1 kcal/mol; ΔGap [2, 8]: -5.9 kcal/mol; ΔHap [2, 8]: -18 kcal/mol"
0.96,21.5,9.63,-6.38,-16,2.04,11.1,33.4,-6.12,-17.2,1.09,27,12,-6.24,-18.2,–,–,–,–,–,CC(=O)N[C@@H](CC(N)=O)C(=O)N[C@@H](CCCNC(=N)N)C(=O)N[C@@H](CCC(N)=O)C(=O)N1CCC[C@H]1C(=O)N1CCC[C@H]1C(=O)N1CCC[C@H]1C(=O)N1CCC[C@H]1C(=O)N[C@@H](Cc1ccc(O)cc1)C(=O)N1CCC[C@H]1C(=O)N[C@@H](CC(C)C)C(=O)N[C@H](C(=O)N[C@@H](C)C(N)=O)[C@@H](C)O [LATS1-a],–
1.09,13.2,11.3,-6.67,-18,–,12.6,16.9,-6.52,-19.2,–,–,–,–,–,–,–,–,–,–,Ac-EGLWPPPYRPRR-NH2 [PTCH1-b],Kd [3]: no interaction was detected and n.b.
